# Measurements reported in US11214556B1, “Method of treating colorectal cancer” (King Abdulaziz University, priority 2019, dated 2022).
# Legend:
# Format in all cases: cell-based, human
# HCT-116 cells = test: SRB cytotoxicity assay, HCT-116; conditions: SRB assay, 72 h exposure, ± SEM
# Experimental: Compounds in this study were tested against colorectal cancer cell line HCT-116, using sulforhodamine-B (SRB) assay. See Skehan, P.; Storeng, R.; Scudiero, D.; Monks, A.; McMahon, J.; Vistica, D.; Warren, J. T.; Bokesch, H.; Kenney, S.; Boyd, M. R., New colorimetric cytotoxicity assay for anticancer-drug screening. J Natl Cancer Inst 1990, 82 (13), 1107-12, incorporated herein by reference in its entirety. […] However, it was clear that compounds bearing hydrophobic aliphatic groups such as MOS-1505 and MOS-1512 are clearly favored in providing anticancer activities. […] The N-aryl substituents were less advantageous in both potency and solubility.
# (§1) Different cell lines were originally purchased from American type culture collection (ATCC, Wesel, Germany) and grown in the tissue culture lab of the Egyptian company for production of vaccines, sera and drugs (Vacsera, Giza, Egypt). The cells were transferred to our laboratory and maintained in the appropriate media as following. HCT-116, CACO-2, and HT-29 (human colon cancer cell lines) were maintained in Roswell Park Memorial Institute medium (RPMI1640) (Invitrogen, Carlsbad, Calif.). The mouse skin fibroblasts (C-166) and Baby Hamster Kidney fibroblasts (BHK) were grown in Dulbecco Modified Eagle's medium (DMEM). Both media were supplemented with 1% of […] of streptomycin, 100 units/mL of penicillin and 10% of heat-inactivated fetal bovine serum (Invitrogen, Carlsbad, Calif.) in a humidified, 5% (v/v) CO2 atmosphere at 37° C.
# (§2) The sulforhodamine B (SRB) assays were performed according to Skehan, P.; Storeng, R.; Scudiero, D.; Monks, A.; McMahon, J.; Vistica, D.; Warren, J. T.; Bokesch, H.; Kenney, S.; Boyd, M. R., New colorimetric cytotoxicity assay for anticancer-drug screening. J Natl Cancer Inst 1990, 82 (13), 1107-12, incorporated herein by reference in its entirety. Briefly, exponentially growing cells were trypsinized, counted and seeded at the appropriate densities (5000 cells/100 μL/well) into 96-well microtiter plates. Cells were incubated in a humidified atmosphere at 37° C. for 24 h. Then, the cells were exposed to different compounds at the desired concentrations, (0.01, 0.1, 1, 10, and 100 μM) or to 1% dimethyl sulfoxide (DMSO) for 72 h. At the end of the treatment period, the media were removed, and the cells were fixed with 10% trichloroacetic acid at 4° C. for 1 hr. Following, the cells were washed with tap water four times and incubated with SRB 0.4% for 30 min. Excess dye was removed by washing repeatedly with 1% (vol/vol) acetic acid. The protein-bound dye was dissolved in 10 mM Tris base solution for (optical density) OD determination at 510 nm using a SpectraMax plus Microplate Reader (Molecular Devices, CA). Cell viability was expressed relative to the untreated control cells.
# HT-29 cells = test: SRB cytotoxicity assay, HT-29; conditions: 72 h exposure, ± SEM
# Excerpt: (§3) Based on the favorable pharmacologic and physicochemical properties of MOS-1512, it was selected as a new lead for the second subset of compounds (MOS-1812 to MOS-5112). The compounds in this series contained variable groups at R^1 and R^2 that were all tested against the three cancer cell lines (HCT-116, Caco-2 and HT-29).
# as §1, §2
# CACO-2 cells = test: SRB cytotoxicity assay, CACO-2; conditions: ± SEM
# Excerpt: as §3, §1, §2
# [1] = Homo sapiens, Caco-2, 72 h exposure
compound,measurement,setting,value
"NC(=O)/C(=C/c1ccccc1)NC(=O)/C=C/c1ccccc1 [Compound 1508, N—[(Z)-3-amino-3-oxo-1-phenylprop-1-en-2-yl]-(E)-cinnamamide]",IC50,"HCT-116 cells; Homo sapiens, HCT-116",> 100 µM
"CN1CCN(NC(=O)/C(=C/c2ccccc2)NC(=O)/C=C/c2ccccc2)CC1 [Compound 1511, (Z)-2-[(E)-cinnamamido]-N-(4-methyl-1-piperazinyl)-3-phenyl-acrylamide]",IC50,"HCT-116 cells; Homo sapiens, HCT-116",> 100 µM
"N#Cc1cccc(NC(=O)/C(=C/c2ccccc2)NC(=O)/C=C/c2ccccc2)c1 [Compound 1513, (Z)-2-[(E)-cinnamamido]-N-(3-cyanophenyl)-3-phenyl-acrylamide]",IC50,"HCT-116 cells; Homo sapiens, HCT-116",> 100 µM
"O=C(/C=C/c1ccccc1)N/C(=C\c1ccccc1)C(=O)Nc1ccc(F)cc1 [Compound 1528, (Z)-2-[(E)-cinnamamido]-N-(4-fluorophenyl)-3-phenylacrylamide]",IC50,"HCT-116 cells; Homo sapiens, HCT-116",91.9 ± 4.4 µM
"O=C(/C=C/c1ccccc1)N/C(=C\c1ccccc1)C(=O)NCc1ccco1 [Compound 1530, (Z)-2-[(E)-cinnamamido]-N-(2-furylmethyl)-3-phenyl-acrylamide]",IC50,"HCT-116 cells; Homo sapiens, HCT-116",> 100 µM
"O=C(/C=C/c1ccccc1)N/C(=C\c1ccccc1)C(=O)NCCN1CCOCC1 [Compound 1531, (Z)-2-[(E)-cinnamamido]-N-(2-morpholinoethyl)-3-phenyl-acrylamide]",IC50,"HCT-116 cells; Homo sapiens, HCT-116",> 100 µM
"O=C(C=Cc1ccccc1)N/C(=C\c1ccccc1)C(=O)N1CCOCC1 [Compound 1536, N—[(Z)-3-morpholino-3-oxo-1-phenylprop-1-en-2-yl]cinnamamide]",IC50,"HCT-116 cells; Homo sapiens, HCT-116",> 100 µM
"O=C(C=Cc1ccccc1)N/C(=C\c1ccccc1)C(=O)N1CCCC1 [Compound 1555, N—[(Z)-3-(1-pyrrolidinyl)-3-oxo-1-phenylprop-1-en-2-yl]cinnamamide]",IC50,"HCT-116 cells; Homo sapiens, HCT-116",> 100 µM
"CCCCNC(=O)/C(=C/c1ccccc1)NC(=O)/C=C/c1ccccc1 [Compound 1556, (Z)—N-(n-butyl)-2-[(E)-cinnamamido]-3-phenylacrylamide]",IC50,"HCT-116 cells; Homo sapiens, HCT-116",67.2 ± 6.3 µM
"CCC(C)NC(=O)/C(=C/c1ccccc1)NC(=O)C=Cc1ccccc1 (stereo not shown) [Compound 1557, (Z)—N-(sec-butyl)-2-cinnamamido-3-phenylacrylamide]",IC50,"HCT-116 cells; Homo sapiens, HCT-116",52.4 ± 7.1 µM
"CCNC(=O)/C(=C/c1ccccc1)NC(=O)/C=C/c1ccccc1 [Compound 1558, (Z)-2-[(E)-cinnamamido]-N-ethyl-3-phenylacrylamide]",IC50,"HCT-116 cells; Homo sapiens, HCT-116",> 100 µM
"CCN(C)C(=O)/C(=C/c1ccccc1)NC(=O)C=Cc1ccccc1 [Compound 1559, (Z)-2-cinnamamido-N-ethyl-N-methyl-3-phenylacrylamide]",IC50,"HCT-116 cells; Homo sapiens, HCT-116",28.8 ± 1 µM
"CCCNC(=O)/C(=C/c1ccccc1)NC(=O)/C=C/c1ccc(Cl)cc1 [Compound 1812, (Z)-2-[(E)-3-(4-chlorophenyl)acrylamido]-3-phenyl-N-propylacrylamide]",IC50,"HCT-116 cells; Homo sapiens, HCT-116",10.3 ± 0.34 µM
same,IC50,"HT-29 cells; Homo sapiens, HT-29, monolayer",7.9 ± 0.43 µM
same,IC50,CACO-2 cells; [1],10.7 ± 0.5 µM
"CCCNC(=O)/C(=C/c1ccccc1)NC(=O)/C=C/c1ccc(OC)cc1 [Compound 1912, (Z)-2-[(E)-3-(4-methoxyphenyl)acrylamido]-3-phenyl-N-propylacrylamide]",IC50,"HCT-116 cells; Homo sapiens, HCT-116",34.1 ± 1.8 µM
same,IC50,"HT-29 cells; Homo sapiens, HT-29, monolayer",55.3 ± 3.2 µM
same,IC50,CACO-2 cells; [1],18.5 ± 1.5 µM
"CCCNC(=O)/C(=C/c1ccccc1)NC(=O)/C=C/c1ccc(C)cc1 [Compound 2012, (Z)-3-phenyl-N-propyl-2-[(E)-3-(p-tolyl)acrylamidolacry]amide]",IC50,HCT-116 cells,35.2 ± 0.54 µM
same,IC50,HT-29 cells; monolayer,54.1 ± 0.42 µM
same,IC50,CACO-2 cells; 72 h exposure,12.7 ± 0.67 µM
"CCCNC(=O)/C(=C/c1ccccc1)NC(=O)/C=C/c1cccs1 [Compound 2112, (Z)-3-phenyl-N-propyl-2-[(E)-3-(thien-2-yl)acrylamidolacry]amide]",IC50,HCT-116 cells,43 ± 1.5 µM
same,IC50,HT-29 cells; monolayer,43.2 ± 2.3 µM
same,IC50,CACO-2 cells; 72 h exposure,27.8 ± 1.3 µM
"CCCNC(=O)/C(=C/c1ccc(F)cc1)NC(=O)C=Cc1ccccc1 [Compound 2212, (Z)-2-cinnamamido-3-(4-fluorophenyl)-N-propylacrylamide]",IC50,"HCT-116 cells; Homo sapiens, HCT-116",15.2 ± 1.2 µM
same,IC50,"HT-29 cells; Homo sapiens, HT-29, monolayer",7.2 ± 0.31 µM
same,IC50,CACO-2 cells; [1],13.2 ± 1 µM
"CCCNC(=O)/C(=C/c1ccc(F)cc1)NC(=O)/C=C/c1ccc(OC)cc1 [Compound 2412, (Z)-3-(4-fluorophenyl)-2-[(E)-3-(4-methoxyphenyl)acrylamido]-N-propylacrylamide]",IC50,"HCT-116 cells; Homo sapiens, HCT-116",29.3 ± 1.2 µM
same,IC50,"HT-29 cells; Homo sapiens, HT-29, monolayer",86.5 ± 2.9 µM
same,IC50,CACO-2 cells; [1],45.7 ± 1.2 µM
"CCCNC(=O)/C(=C/c1ccc(F)cc1)NC(=O)/C=C/c1ccc(C)cc1 [Compound 2512, (Z)-3-(4-fluorophenyl)-N-propyl-2-[(E)-3-(p-tolyl)acrylamidolacry]amide]",IC50,HCT-116 cells,6.7 ± 0.36 µM
same,IC50,HT-29 cells; monolayer,11.8 ± 0.18 µM
same,IC50,CACO-2 cells; 72 h exposure,5.1 ± 0.17 µM
"CCCNC(=O)/C(=C/c1ccc(F)cc1)NC(=O)/C=C/c1cccs1 [Compound 2612, (Z)-3-(4-fluorophenyl)-N-propyl-2-[(E)-3-(thien-2-yl)acrylamidolacry]amide]",IC50,HCT-116 cells,17.3 ± 0.13 µM
same,IC50,HT-29 cells; monolayer,7.68 ± 0.05 µM
same,IC50,CACO-2 cells; 72 h exposure,10.7 ± 0.68 µM
"CCCNC(=O)/C(=C/c1ccc(N(C)C)cc1)NC(=O)C=Cc1ccccc1 [Compound 2712, (Z)-2-cinnamamido-3-[4-(dimethylamino)phenyl]-N-propylacrylamide]",IC50,"HCT-116 cells; Homo sapiens, HCT-116",6.95 ± 0.46 µM
same,IC50,"HT-29 cells; Homo sapiens, HT-29, monolayer",6.8 ± 0.05 µM
same,IC50,CACO-2 cells; [1],4.24 ± 0.09 µM
"CCCNC(=O)/C(=C/c1ccc(N(C)C)cc1)NC(=O)/C=C/c1ccc(OC)cc1 [Compound 2912, (Z)-3-[4-(dimethylamino)phenyl]-2-[(E)-3-(4-methoxyphenyl)acrylamido]-N-propylacrylamide]",IC50,"HCT-116 cells; Homo sapiens, HCT-116",12.4 ± 0.25 µM
same,IC50,"HT-29 cells; Homo sapiens, HT-29, monolayer",36.9 ± 0.25 µM
same,IC50,CACO-2 cells; [1],15.3 ± 0.05 µM
"CCCNC(=O)/C(=C/c1ccc(N(C)C)cc1)NC(=O)/C=C/c1ccc(C)cc1 [Compound 3012, (Z)-3-[4-(dimethylamino)phenyl]-N-propyl-2-[(E)-3-(p-tolyl)acrylamidolacry]amide]",IC50,HCT-116 cells,22.1 ± 0.1 µM
same,IC50,HT-29 cells; monolayer,39.6 ± 0.22 µM
same,IC50,CACO-2 cells; 72 h exposure,29.4 ± 0.08 µM
"CCCNC(=O)/C(=C/c1ccc(N(C)C)cc1)NC(=O)/C=C/c1cccs1 [Compound 3112, (Z)-3-[4-(dimethylamino)phenyl]-N-propyl-2-[(E)-3-(thien-2-yl)acrylamidolacry]amide]",IC50,HCT-116 cells,11.6 ± 0.39 µM
same,IC50,HT-29 cells; monolayer,66.5 ± 0.1 µM
same,IC50,CACO-2 cells; 72 h exposure,27.7 ± 3.7 µM
"CCCNC(=O)/C(=C/c1ccc(O)c(OC)c1)NC(=O)C=Cc1ccccc1 [Compound 3212, (Z)-2-cinnamamido-3-(4-hydroxy-3-methoxyphenyl)-N-propylacrylamide]",IC50,"HCT-116 cells; Homo sapiens, HCT-116",> 100 µM
same,IC50,"HT-29 cells; Homo sapiens, HT-29, monolayer",9.14 ± 0.23 µM
same,IC50,CACO-2 cells; [1],6.32 ± 0.02 µM
"CCCNC(=O)/C(=C/c1ccc(O)c(OC)c1)NC(=O)/C=C/c1ccc(Cl)cc1 [Compound 3312, (Z)-2-[(E)-3-(4-chlorophenyl)acrylamido]-3-(4-hydroxy-3-methoxyphenyl)-N-propylacrylamide]",IC50,"HCT-116 cells; Homo sapiens, HCT-116",37.8 ± 1.8 µM
same,IC50,"HT-29 cells; Homo sapiens, HT-29, monolayer",5.4 ± 0.34 µM
same,IC50,CACO-2 cells; [1],6.1 ± 0.44 µM
"CCCNC(=O)/C(=C/c1ccc(O)c(OC)c1)NC(=O)/C=C/c1ccc(OC)cc1 [Compound 3412, (Z)-3-(4-hydroxy-3-methoxyphenyl)-2-[(E)-3-(4-methoxyphenyl)acrylamido]-N-propylacrylamide]",IC50,"HCT-116 cells; Homo sapiens, HCT-116",38.4 ± 2.1 µM
same,IC50,"HT-29 cells; Homo sapiens, HT-29, monolayer",48.6 ± 0.4 µM
same,IC50,CACO-2 cells; [1],18 ± 1.2 µM
"CCCNC(=O)/C(=C/c1ccc(O)c(OC)c1)NC(=O)/C=C/c1ccc(C)cc1 [Compound 3512, (Z)-3-(4-hydroxy-3-methoxyphenyl)-N-propyl-2-[(E)-3-(p-tolyl)acrylamidolacry]amide]",IC50,HCT-116 cells,26.3 ± 1.3 µM
same,IC50,HT-29 cells; monolayer,15.1 ± 0.67 µM
same,IC50,CACO-2 cells; 72 h exposure,20.9 ± 1.1 µM
"CCCNC(=O)/C(=C/c1ccc(O)c(OC)c1)NC(=O)/C=C/c1cccs1 [Compound 3612, (Z)-3-(4-hydroxy-3-methoxyphenyl)-N-propyl-2-[(E)-3-(thien-2-yl)acrylamidolacry]amide]",IC50,HCT-116 cells,24.8 ± 1.4 µM
same,IC50,HT-29 cells; monolayer,48.3 ± 1.9 µM
same,IC50,CACO-2 cells; 72 h exposure,28.3 ± 1.3 µM
"CCCNC(=O)/C(=C/c1c[nH]c2ccccc12)NC(=O)/C=C/c1ccc(C)cc1 [Compound 4012, (Z)-3-(1H-indol-3-yl)-N-propyl-2-[(E)-3-(p-tolyl)acrylamidolacry]amide]",IC50,HCT-116 cells,3.39 ± 0.1 µM
same,IC50,HT-29 cells; monolayer,3.12 ± 0.06 µM
same,IC50,CACO-2 cells; 72 h exposure,2.3 ± 0.08 µM
"O=C/C=C/c1ccccc1 [tCA, trans-cinnamaldehyde, reference compound]",IC50,"HCT-116 cells; Homo sapiens, HCT-116",12.4 ± 1.2 µM
